Assay results from US10550105B2 (Ribon Therapeutics Inc., priority 2018, dated 2020).

Experiments:
[1] = molecular target: T1, PARP7 (Homo sapiens (Human), UniProt Q7Z3E1); experiment: Enzymatic assay for inhibition of PARP7: TR-FRET displacement of biotinylated Probe A from the TIPARP active site; type: binding; settings: Table A-1
In short: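 Compounds were tested as dose-response series, and reactions were incubated a further 30 min at 25° C. TR-FRET was read at 320 nm excitation with 615 and 665 nm emission after a 90 μs delay. The 665/615 ratio gave the TIPARP–Probe A complex, and % inhibition was fitted against concentration.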

[2] = test system: NCI-H1373 lung cancer cells; experiment: Inhibition of cancer cell growth in NCI-H1373 lung cancer cells (FIG. 2); type: cell-based, human
[3] = test system: CT26 tumors; experiment: Inhibition of tumor growth, murine syngeneic model CT26 (subcutaneous dosing); type: in vivo; settings: CT26 in BALB/c mice, vs vehicle (FIG. 6)
Protocol: For the CT26 study BALB/c mice were inoculated subcutaneously at the right flank with CT26 cells for tumor development. Four days after tumor inoculation, 36 mice with tumor size ranging from 40-55 mm^3 (average tumor size 47 mm^3) were selected and assigned into 3 groups using stratified randomization with 12 mice in each group based upon their tumor volumes. The treatments were started from the next day post randomization (defined randomization day as day 0) and were treated with vehicle (0.5% methylcellulose+0.2% Tween 80), Compound 98 (500 mg/kg S.C. QD*21 days), Compound 93A (100 mg/kg S.C. BID*21 days) respectively. The tumor sizes were measured three times per week during the treatment. The entire study was terminated on day 21. Mean tumor volume and SEM for both studies are plotted. Statistical significance, calculated using two-tailed unpaired t-tests in which each treatment group was compared to vehicle control, is indicated by an asterisk. Statistics were performed on groups with less than 20% animal loss (D21 for CT26, D17 for 4T1).

[4] = test system: 4T1-luc2-1A4 tumors; experiment: Inhibition of tumor growth, murine syngeneic model 4T1 (orthotopic, mammary fat pad); type: in vivo; settings: 4T1 orthotopic in female BALB/c mice, vs vehicle (FIG. 6)
Source text: Example G: Inhibition of Tumor Growth by Treatment with PARP7 Inhibitors For the 4T1 study female BALB/c mice were inoculated orthotopically in the mammary fat pad with 4T1-1uc2-1A4 cells for tumor development. Eight days after tumor inoculation, 45 mice with tumor size ranging from 63-88 mm^3 (average tumor size 67 mm^3) were selected and assigned into 3 groups using stratified randomization with 15 mice in each group based upon their tumor volumes. The treatments were started from the next day post randomization (defined randomization day as D0) and were treated with vehicle (0.5% methylcellulose +0.2% Tween 80), Compound 98 (500 mg/kg S.C. QD*21 days), Compound 93A (100 mg/kg S.C. BID*21 days) respectively. The tumor sizes were measured three times per week during the treatment. The entire study was terminated on D20. Mean tumor volume and SEM for both studies are plotted. Statistical significance, calculated using two-tailed unpaired t-tests in which each treatment group was compared to vehicle control, is indicated by an asterisk. Statistics were performed on groups with less than 20% animal loss (D21 for CT26, D17 for 4T1).

[5] = molecular target: T1, PARP7; experiment: Inhibition of PARP7 (Table A-1); type: biochemical; settings: comparison of separated isomers, see Table A-1
[6] = test system: interferon-beta (IFN-β); experiment: Induction of interferon-beta levels in CT26 cells in the presence of STING agonist DMXAA (FIG. 3); type: cell-based; settings: CT26 mouse colon cancer cells
[7] = test system: interferon-beta (IFN-β); experiment: Induction of interferon-beta levels in RAW264.7 macrophages in the presence of STING agonist DMXAA (FIG. 3); type: cell-based; settings: RAW264.7 mouse macrophages

T1 sequence (Q7Z3E1 whole entry): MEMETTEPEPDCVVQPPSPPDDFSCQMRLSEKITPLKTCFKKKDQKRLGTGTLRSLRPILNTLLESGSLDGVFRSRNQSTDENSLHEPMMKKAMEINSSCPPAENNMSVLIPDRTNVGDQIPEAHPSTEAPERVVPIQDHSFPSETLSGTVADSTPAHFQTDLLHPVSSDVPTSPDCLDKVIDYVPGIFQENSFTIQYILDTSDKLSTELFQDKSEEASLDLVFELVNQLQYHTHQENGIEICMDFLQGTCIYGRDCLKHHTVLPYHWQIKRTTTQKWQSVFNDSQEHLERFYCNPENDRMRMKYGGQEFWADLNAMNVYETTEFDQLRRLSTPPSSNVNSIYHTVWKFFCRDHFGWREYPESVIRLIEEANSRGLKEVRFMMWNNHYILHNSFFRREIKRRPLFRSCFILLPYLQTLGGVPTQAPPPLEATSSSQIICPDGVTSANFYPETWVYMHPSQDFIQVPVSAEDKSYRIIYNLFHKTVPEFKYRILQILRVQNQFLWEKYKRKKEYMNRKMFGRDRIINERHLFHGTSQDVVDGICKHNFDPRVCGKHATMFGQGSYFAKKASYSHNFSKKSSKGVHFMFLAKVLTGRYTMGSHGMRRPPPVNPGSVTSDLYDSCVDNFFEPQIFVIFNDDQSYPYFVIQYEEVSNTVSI

IC50 [1]	SMILES	also measured
< 100 nM	N#Cc1ccc(N2CCN(C(=O)CCOC[C@@H]3c4ccccc4CN3c3cn[nH]c(=O)c3C(F)(F)F)CC2)nc1 (single isomer, unassigned) [Example 93 Isomer A]	growth of NCI-H1373 lung cancer cells [2]: dose-dependent decrease in growth; tumor growth ([3]; 100 mg/kg S.C. BID*21 days): significantly reduce tumor growth; tumor growth ([4]; 100 mg/kg S.C. BID*21 days): significantly reduce tumor growth
< 100 nM	N#Cc1ccc(N2CCN(C(=O)C[C@H]3CC[C@@H]([C@@H]4CCCN4c4cn[nH]c(=O)c4C(F)(F)F)O3)CC2)nc1 [Example 141B, 6-(4-[2-[(2R,5S)-5-[(2S)-1-[6-oxo-5-(trifluoromethyl)-1,6-dihydropyridazin-4-yl]pyrrolidin-2-yl]oxolan-2-yl]acetyl]piperazin-1-yl)pyridine-3-carbonitrile]	relative potency of the enantiomers / diastereomers [5]: more potent enantiomer
< 100 nM	CC[C@@H](COCCC(=O)N1CCN(c2ncc(C(F)(F)F)cn2)CC1)Nc1cn[nH]c(=O)c1C(F)(F)F [Example 585, 5-[[(2S)-1-(3-Oxo-3-[4-[5-(trifluoromethyl)pyrimidin-2-yl]piperazin-1-yl]propoxy)butan-2-yl]amino]-4-(trifluoromethyl)-2,3-dihydropyridazin-3-one]	
100 to 1000 nM	N#Cc1ccc(N2CCC(NC(=O)CCOC[C@@H]3CCCN3c3cn[nH]c(=O)c3C(F)(F)F)C2)nc1 (stereo partly drawn) [Example 117, N-[1-(5-cyanopyridin-2-yl)pyrrolidin-3-yl]-3-[[(2S)-1-[6-oxo-5-(trifluoromethyl)-1,6-dihydropyridazin-4-yl]pyrrolidin-2-yl]methoxy]propanamide]	
100 to 1000 nM	C[C@@H](COc1cn[nH]c(=O)c1C(F)(F)F)OCCC(=O)N1CCN(c2ccc(C#N)cn2)CC1 [Example 530C, 6-[4-(3-[[(2S)-1-[[6-Oxo-5-(trifluoromethyl)-1,6-dihydropyridazin-4-yl]oxy]propan-2-yl]oxy]propanoyl)piperazin-1-yl]pyridine-3-carbonitrile]	
< 100 nM	O=C(CCNC[C@@H]1c2ccccc2CN1c1cn[nH]c(=O)c1C(F)(F)F)N1CCN(c2ncc(Cl)cn2)CC1 [Example 627, (S)-5-(1-(((3-(4-(5-Chloropyrimidin-2-yl)piperazin-1-yl)-3-oxopropyl)amino)methyl)isoindolin-2-yl)-4-(trifluoromethyl)pyridazin-3(2H)-one]	
< 100 nM	COC[C@@H](COCCC(=O)N1CCN(c2cnc(Cl)cn2)CC1)Nc1cn[nH]c(=O)c1C(F)(F)F [Example 678, (S)-5-((1-(3-(4-(5-Chloropyrazin-2-yl)piperazin-1-yl)-3-oxopropoxy)-3-methoxypropan-2-yl)amino)-4-(trifluoromethyl)pyridazin-3(2H)-one]	
< 100 nM	N#Cc1ccc(N2CCN(C(=O)[C@@H]3CNC[C@@H](OC[C@@H]4CCCN4c4cn[nH]c(=O)c4C(F)(F)F)C3)CC2)nc1 (single isomer, unassigned) [Example 56 Isomer A]	
≥ 1000 nM	C#CCOC[C@@H]1CCCN1c1cn[nH]c(=O)c1C(F)(F)F [Example 472, (S)-5-(2-((prop-2-yn-1-yloxy)methyl)pyrrolidin-1-yl)-4-(trifluoromethyl)pyridazin-3(2H)-one]	
100 to 1000 nM	N#Cc1ccc(N2CCN(C(=O)CCOC3Cc4ccccc4C3Oc3cn[nH]c(=O)c3C(F)(F)F)CC2)nc1 (stereo not shown) [Example 540, 6-(4-[3-[(1-[[6-Oxo-5-(trifluoromethyl)-1,6-dihydropyridazin-4-yl]oxy]-2,3-dihydro-1H-inden-2-yl)oxy]propanoyl]piperazin-1-yl)pyridine-3-carbonitrile]	
< 100 nM	O=C(CCOCCNc1cn[nH]c(=O)c1C(F)(F)F)N1CCN(c2ncc(C(F)(F)F)cn2)CC1 [Example 505, 5-[[2-(3-Oxo-3-[4-[5-(Trifluoromethyl)pyrimidin-2-yl]piperazin-1-yl]propoxy)ethyl]amino]-4-(trifluoromethyl)-2,3-dihydropyridazin-3-one]	
100 to 1000 nM	O=c1[nH]ncc(N2Cc3ccnc(OC4CCNCC4)c3C2)c1C(F)(F)F [Example 16, 5-[4-(piperidin-4-yloxy)-1H,2H,3H-pyrrolo[3,4-c]pyridin-2-yl]-4-(trifluoromethyl)-2,3-dihydropyridazin-3-one]	

More lines, now with the values behind:

SMILES	IC50 [1]	also measured
N#Cc1ccc(N2CCN(C(=O)c3cccc(OCCOc4cccc5c4CN(c4cn[nH]c(=O)c4C(F)(F)F)C5)c3)CC2)nc1 [Example 39, 6-[4-([3-[2-([2-[6-Oxo-5-(trifluoromethyl)-1,6-dihydropyridazin-4-yl]-2,3-dihydro-1H-isoindol-4-yl]oxy)ethoxy]phenyl]carbonyl)piperazin-1-yl]pyridine-3-carbonitrile]	< 100 nM	growth of NCI-H1373 lung cancer cells [2]: dose-dependent decrease in growth
N#Cc1ccc(N2CCN(C(=O)CCOC[C@@H]3CCCN3c3cn[nH]c(=O)c3C(F)(F)F)CC2)nc1 [Example 98, 6-[4-(3-[[(2S)-1-[6-Oxo-5-(trifluoromethyl)-1,6-dihydropyridazin-4-yl]pyrrolidin-2-yl]methoxy]propanoyl)piperazin-1-yl]pyridine-3-carbonitrile]	< 100 nM	interferon-beta (IFN-β) levels [6]: induction; interferon-beta (IFN-β) levels [7]: induction; growth of NCI-H1373 lung cancer cells [2]: dose-dependent decrease in growth; tumor growth ([3]; 500 mg/kg S.C. QD*21 days): significantly reduce tumor growth; tumor growth ([4]; 500 mg/kg S.C. QD*21 days): significantly reduce tumor growth
C[C@@H](CC(=O)N1CCN(c2ccc(C#N)cn2)CC1)OC[C@@H]1CCCN1c1cn[nH]c(=O)c1C(F)(F)F [Example 123B, 6-[4-[(3S)-3-[[(2S)-1-[6-oxo-5-(trifluoromethyl)-1,6-dihydropyridazin-4-yl]pyrrolidin-2-yl]methoxy]butanoyl]piperazin-1-yl]pyridine-3-carbonitrile]	< 100 nM	
CN(CCOc1cccc(C(=O)N2CCN(c3ccc(C#N)cn3)CC2)c1)c1cn[nH]c(=O)c1C(F)(F)F [Example 29, 6-(4-[[3-(2-[methyl[6-oxo-5-(trifluoromethyl)-1,6-dihydropyridazin-4-yl]amino]ethoxy)phenyl]carbonyl]piperazin-1-yl)pyridine-3-carbonitrile]	< 100 nM	
COc1cnc2c(c1)CN(c1cn[nH]c(=O)c1C(F)(F)F)C2 [Example 326, 5-(3-Methoxy-5,7-dihydro-6H-pyrrolo[3,4-b]pyridin-6-yl)-4-(trifluoromethyl)pyridazin-3(2H)-one]	< 100 nM	
C[C@@H](COCCC(=O)N1CCN(c2cnc(C#N)cn2)CC1)Nc1cn[nH]c(=O)c1C(F)(F)F [Example 683, (S)-5-(4-(3-(2-((6-Oxo-5-(trifluoromethyl)-1,6-dihydropyridazin-4-yl)amino)propoxy)propanoyl)piperazin-1-yl)pyrazine-2-carbonitrile]	< 100 nM	
N#Cc1ccc(N2CCN(C(=O)c3cccc(OC[C@@H]4C[C@@H](C#N)CN4c4cn[nH]c(=O)c4C(F)(F)F)c3)CC2)nc1 [Example 464, 6-(4-(3-(((2S,4R)-4-Cyano-1-(6-oxo-5-(trifluoromethyl)-1,6-dihydropyridazin-4-yl)pyrrolidin-2-yl)methoxy)benzoyl)piperazin-1-yl)nicotinonitrile]	≥ 1000 nM	
N#Cc1ccc(N2CCC3(CN(C(=O)CCOC[C@@H]4CCCN4c4cn[nH]c(=O)c4C(F)(F)F)C3)C2)nc1 [Example 109, 6-[2-(3-[[(2S)-1-[6-oxo-5-(trifluoromethyl)-1,6-dihydropyridazin-4-yl]pyrrolidin-2-yl]methoxy]propanoyl)-2,6-diazaspiro[3.4]octan-6-yl]pyridine-3-carbonitrile]	100 to 1000 nM	
N#Cc1ccc(N2CCN(C(=O)CCO[C@@H]3Cc4ccccc4[C@H]3Nc3cn[nH]c(=O)c3C(F)(F)F)CC2)nc1 (single isomer, unassigned) [Example 537 Isomer B]	< 100 nM	
